According to publication PMC10807245 (Protein Science : A Publication of the Protein Society, 2024):
Where a SMILES comes first, the peptide text is derived from it. Where no end group is shown, it is not given here. The star is where a group is joined. FITC = O=C1OC2(c3ccc(O)cc3Oc3cc(O)ccc32)c2ccc(NC(=S)*)cc21; Ahx = NCCCCCC(=O)O

Key:
IMPα2ΔIBB [1] = target: T1, IMPα2ΔIBB (Mus musculus, UniProt P52293); test: biochemical; type: binding; conditions: for binding to IMPα2ΔIBB: FITC-labeled MCPyV LTA NLS peptides, EMSAs and FP assays, in words; for Kd: SEM
IMPαΔIBB isoforms [2] = test: Electrophoresis mobility shift assays (EMSAs) of FITC-cNLS peptides with IMPαΔIBB isoforms; type: binding; conditions: EMSA, 1.5% agarose gel, TB buffer pH 8.5, FITC-cNLS peptide, in words
IMPα3ΔIBB = IMPα3ΔIBB (Homo sapiens, UniProt O00629); test: biochemical; type: binding; conditions: for Kd: SEM
From the text: (§1) Recombinant IMPαΔIBB proteins were produced for structural analysis and assays to elucidate the binding profiles with PyV LTAs. For this, plasmid constructs encoding IMPα isoforms with an N‐terminal truncation removing the autoinhibitory IBB domain (ΔIBB) were synthesized (GenScript Biotech, Singapore). Codon optimized genes were designed with an N‐terminal 6xHis tag and TEV protease cleavage site and were cloned into the BamHI site of pET30a (GenScript Biotech, Singapore). […] For protein expression, the plasmids were transformed via heat shock into BL21(DE3)pLysS E. coli cells (Thermofisher Scientific, Monza, Italy) and grown in 1 L baffled flasks at room temperature using auto‐induction methods for 24–48 h (Studier, [2005]). […] Following this, the 6xHis tag was cleaved using TEV protease incubated overnight at 4°C, and then further purified via gel filtration using a Superdex 200 pg 26/600 column (Cytiva, Marlborough, USA) and tris‐buffered saline (50 mM tris, 125 mM sodium chloride, pH 8.0). […] Peak fractions were assessed for purity using SDS‐PAGE, then pooled and concentrated using 10 kDa cutoff centrifugal filters (Merck Millipore, Milan, Italy). All samples were aliquoted and stored at −80°C until further use.
(§2) Peptides corresponding to the cNLS regions of each PyV were synthesized for use in crystallography and binding assays. An automated CEM Liberty Blue solid phase peptide synthesizer generated each peptide with an added N‐terminal fluorescein isothiocyanate (FITC) tag. The reaction was performed using DIC and Oxyma coupling reagent and Fmoc deprotection with 20% (v/v) piperidine/DMF solution, all at 90°C. Following the final coupling, peptides were cleaved from the resin using a solution of TFA/TIPS/H2O (95/2.5/2.5) for 3 h. Purification was performed with HPLC and the peptides lyophilized to powder. Prior to use, peptide stock solutions were resolubilized to 10 mM concentration, aliquoted, and stored at −20°C until use.
FP was used to quantify binding affinities of the HPyV LTA cNLSs for IMPαΔIBB proteins. Two‐fold dilutions of recombinant IMPαΔIBB proteins were titrated into black Fluotrac microplates (Greiner Bio‐One, Kremsmünster, Austria) and FITC‐cNLS peptides were added to each well before making up to a total volume of 200 μL with tris‐buffered saline. The gain adjustment was made using a well with no FITC‐NLS peptide. The CLARIOstar Plus (BMG Labtech, Mornington, Australia) plate reader measured FP values, with each assay repeated in triplicate. Binding curves to calculate K d and B max values were generated with the one site specific binding least square fit function of Prism 9 (GraphPad) software.

IMPαΔIBB isoforms [3] = test: FP assays, summary over all IMPαΔIBB isoforms; type: binding
From the text: as §1, with “All samples were aliquoted and stored at −80°C until further use.” left out
(§3) FP was used to quantify binding affinities of the HPyV LTA cNLSs for IMPαΔIBB proteins. […] The CLARIOstar Plus (BMG Labtech, Mornington, Australia) plate reader measured FP values, with each assay repeated in triplicate. […]

IMPα2ΔIBB [4] = target: T1, IMPα2ΔIBB; test: X-ray crystallography of cNLS peptides complexed with IMPα2ΔIBB; type: binding; conditions: FITC-cNLS peptide soaked or co-crystallized, in words
From the text: Recombinant IMPαΔIBB proteins were produced for structural analysis and assays to elucidate the binding profiles with PyV LTAs. For this, plasmid constructs encoding IMPα isoforms with an N‐terminal truncation removing the autoinhibitory IBB domain (ΔIBB) were synthesized (GenScript Biotech, Singapore). Codon optimized genes were designed with an N‐terminal 6xHis tag and TEV protease cleavage site and were cloned into the BamHI site of pET30a (GenScript Biotech, Singapore). […] For protein expression, the plasmids were transformed via heat shock into BL21(DE3)pLysS E. coli cells (Thermofisher Scientific, Monza, Italy) and grown in 1 L baffled flasks at room temperature using auto‐induction methods for 24–48 h (Studier, [2005]). […] Peak fractions were assessed for purity using SDS‐PAGE, then pooled and concentrated using 10 kDa cutoff centrifugal filters (Merck Millipore, Milan, Italy). […]
X‐ray crystallography was employed to characterize HPyV LTA cNLSs bound to IMPα2ΔIBB. […] Protein interface interactions used in the structure figures were calculated using PDBePISA (Krissinel & Henrick, [2007]), with hydrogens removed in the PDB input models.

IMPα1ΔIBB = IMPα1ΔIBB (Homo sapiens, UniProt P52292); test: Fluorescence polarization (FP) assay, FITC-cNLS peptide binding to IMPα1ΔIBB; conditions: FITC-Ahx-cNLS peptide, two-fold dilutions of recombinant IMPα1ΔIBB, tris-buffered saline, 200 μL, one site specific binding fit, mean ± SEM, three independent experiments, read-out: Kd (nM), a1
From the text: as §1
as §2, with “Prior to use, peptide stock solutions were resolubilized to 10 mM concentration, aliquoted, and stored at −20°C until use.” left out
as §3

IMPα7ΔIBB = IMPα7ΔIBB (Homo sapiens, UniProt O60684); test: FP assay, FITC-cNLS peptide binding to IMPα7ΔIBB; conditions: FITC-Ahx-cNLS peptide, two-fold dilutions of recombinant IMPα7ΔIBB, tris-buffered saline, 200 μL, one site specific binding fit, mean ± SEM, three independent experiments, read-out: Kd (nM), a7
From the text: as §1
as §2, with “Prior to use, peptide stock solutions were resolubilized to 10 mM concentration, aliquoted, and stored at −20°C until use.” left out
as §3

IMPα5ΔIBB = IMPα5ΔIBB (Homo sapiens, UniProt P52294); test: FP assay, FITC-cNLS peptide binding to IMPα5ΔIBB; conditions: FITC-Ahx-cNLS peptide, two-fold dilutions of recombinant IMPα5ΔIBB, tris-buffered saline, 200 μL, one site specific binding fit, mean ± SEM, three independent experiments, read-out: Kd (nM), a5
From the text: as §1
as §2, with “Prior to use, peptide stock solutions were resolubilized to 10 mM concentration, aliquoted, and stored at −20°C until use.” left out
as §3

Chain of IMPα7ΔIBB (O60684 73-536, stated change not applied): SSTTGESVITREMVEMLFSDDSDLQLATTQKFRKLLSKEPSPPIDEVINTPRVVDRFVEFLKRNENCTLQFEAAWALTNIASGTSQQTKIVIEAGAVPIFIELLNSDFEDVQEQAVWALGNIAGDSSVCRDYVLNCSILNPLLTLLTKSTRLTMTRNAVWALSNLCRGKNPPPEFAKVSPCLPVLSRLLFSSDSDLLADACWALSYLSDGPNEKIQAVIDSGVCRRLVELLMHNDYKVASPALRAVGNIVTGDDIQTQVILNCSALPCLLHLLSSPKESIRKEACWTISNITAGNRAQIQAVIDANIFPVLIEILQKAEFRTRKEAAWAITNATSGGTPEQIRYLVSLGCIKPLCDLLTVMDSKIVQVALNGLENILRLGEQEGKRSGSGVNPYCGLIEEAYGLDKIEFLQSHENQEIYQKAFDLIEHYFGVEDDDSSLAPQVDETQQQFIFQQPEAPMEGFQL
Chain of IMPα3ΔIBB (O00629 64-521, stated change not applied): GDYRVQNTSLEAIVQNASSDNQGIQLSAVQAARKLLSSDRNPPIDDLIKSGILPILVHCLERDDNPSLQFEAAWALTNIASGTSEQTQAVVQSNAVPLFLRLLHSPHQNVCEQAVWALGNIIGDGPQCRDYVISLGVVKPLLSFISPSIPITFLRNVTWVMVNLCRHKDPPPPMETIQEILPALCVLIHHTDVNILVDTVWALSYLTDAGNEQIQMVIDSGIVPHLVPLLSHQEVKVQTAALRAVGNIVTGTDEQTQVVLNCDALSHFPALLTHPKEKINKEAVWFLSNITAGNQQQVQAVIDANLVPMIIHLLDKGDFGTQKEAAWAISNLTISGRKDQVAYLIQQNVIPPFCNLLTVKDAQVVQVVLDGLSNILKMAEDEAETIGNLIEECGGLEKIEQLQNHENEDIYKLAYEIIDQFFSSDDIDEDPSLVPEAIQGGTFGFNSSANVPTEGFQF
Chain of IMPα5ΔIBB (P52294 73-538, stated change not applied): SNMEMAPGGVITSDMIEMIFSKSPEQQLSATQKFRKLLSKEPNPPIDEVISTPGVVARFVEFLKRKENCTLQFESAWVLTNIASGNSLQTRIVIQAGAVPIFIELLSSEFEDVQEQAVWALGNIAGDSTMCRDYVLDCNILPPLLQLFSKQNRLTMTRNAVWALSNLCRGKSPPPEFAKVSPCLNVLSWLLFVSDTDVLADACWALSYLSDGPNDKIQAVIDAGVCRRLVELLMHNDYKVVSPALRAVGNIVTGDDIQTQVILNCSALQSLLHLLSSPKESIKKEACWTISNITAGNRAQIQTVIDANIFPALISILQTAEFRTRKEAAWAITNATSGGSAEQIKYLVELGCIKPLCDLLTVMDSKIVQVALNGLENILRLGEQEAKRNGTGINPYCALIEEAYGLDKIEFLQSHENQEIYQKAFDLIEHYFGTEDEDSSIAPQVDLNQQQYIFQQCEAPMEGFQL

Compound | Kd (IMPα1ΔIBB) | Kd (IMPα3ΔIBB) | Kd (IMPα7ΔIBB) | Kd (IMPα5ΔIBB) | Kd (IMPα2ΔIBB [1]) | other results
{FITC-Ahx}-PFSRKRTFGGSRSSASSASSASFTSTPPKPKKNRE [MCPyV NLSbip K280T] | – | – | – | – | – | binding to IMPα2ΔIBB (IMPα2ΔIBB [1]): completely abrogated IMPα2ΔIBB binding to MCPyV LTA NLSm but not NLSbip
{FITC-Ahx}-SSSDEEEPASSASVNPEEGCSQDSKYSATPPKQKKPN [HPyV7 LTA cNLS peptide] | – | – | – | – | – | co-migration with IMPαΔIBB isoforms (IMPαΔIBB isoforms [2]): a very small fraction of HPyV7 LTA monopartite cNLS co‐migrated with IMPαΔIBB isoforms; binding to IMPα3ΔIBB (IMPα3ΔIBB; in vitro, FP, in words): weakly binding IMPα3ΔIBB; IMPα isoform specificity (IMPαΔIBB isoforms [3]; in words): selectively bound to IMPα3ΔIBB; Kds for IMPαΔIBB isoforms (IMPαΔIBB isoforms [3]; span over IMPα1, 2, 3, 5, 7 ΔIBB): too weak to allow estimation of a Kd
{FITC-Ahx}-PFSRKRTFGGS [MCPyV NLSm K280T] | – | – | – | – | – | binding to IMPα2ΔIBB (IMPα2ΔIBB [1]): completely abrogated IMPα2ΔIBB binding
{FITC-Ahx}-MFASDDENTGSQHSTPPKKKKKV [JCPyV LTA NLS peptide, FITC-Ahx-labelled synthetic peptide of JCPyV LTA monopartite cNLS, residues 111-133] | – | – | – | – | – | binding mode in crystal structure with IMPα2ΔIBB (IMPα2ΔIBB [4]): bound as a monopartite cNLS at the major site of IMPα2ΔIBB; co-migration with IMPαΔIBB isoforms (IMPαΔIBB isoforms [2]): co‐migrated with all IMPαΔIBB isoforms
C[C@H](NC(=O)[C@H](Cc1c[nH]cn1)NC(=O)[C@H](CCCCN)NC(=O)[C@H](CCCCN)NC(=O)[C@H](CCCCN)NC(=O)[C@@H]1CCCN1C(=O)[C@@H]1CCCN1C(=O)[C@@H](NC(=O)[C@H](C)NC(=O)[C@H](CCC(N)=O)NC(=O)[C@H](CO)NC(=O)[C@H](CS)NC(=O)[C@H](CO)NC(=O)[C@@H]1CCCN1C(=O)[C@H](CCC(=O)O)NC(=O)[C@H](CCC(=O)O)NC(=O)[C@H](CCC(=O)O)NC(=O)[C@@H]1CCCN1C(=O)[C@H](C)NC(=O)[C@H](CO)NC(=O)[C@H](CCCNC(=N)N)NC(=O)[C@H](CCCCN)NC(=O)CCCCCNC(=S)Nc1ccc2c(c1)C(=O)OC21c2ccc(O)cc2Oc2cc(O)ccc21)[C@@H](C)O)C(=O)O [KIPyV] ({FITC-Ahx}-KRSAPEEEPSCSQATPPKKKHA-OH; C-terminus assumed) | 22 ± 1 nM | 11 ± 2 nM | 8 ± 1 nM | 10 ± 1 nM | 14 ± 3 nM | –
C[C@H](NC(=O)[C@H](CCC(N)=O)NC(=O)[C@H](CO)NC(=O)[C@H](CS)NC(=O)[C@H](CCC(N)=O)NC(=O)[C@@H]1CCCN1C(=O)[C@H](CCC(=O)O)NC(=O)[C@H](CCC(=O)O)NC(=O)[C@H](CC(=O)O)NC(=O)[C@H](CC(=O)O)NC(=O)[C@H](CCC(=O)O)NC(=O)[C@H](CCCNC(=N)N)NC(=O)[C@@H](NC(=O)[C@H](CCCNC(=N)N)NC(=O)[C@H](CCCCN)NC(=O)CCCCCNC(=S)Nc1ccc2c(c1)C(=O)OC21c2ccc(O)cc2Oc2cc(O)ccc21)[C@@H](C)O)C(=O)N[C@H](C(=O)N1CCC[C@H]1C(=O)N1CCC[C@H]1C(=O)N[C@@H](CCCCN)C(=O)N[C@@H](CCCCN)C(=O)N[C@@H](CCCCN)C(=O)N[C@@H](CCCCN)C(=O)N[C@@H](CC(=O)O)C(=O)O)[C@@H](C)O [WUPyV] ({FITC-Ahx}-KRTREDDEEPQCSQATPPKKKKD-OH; C-terminus assumed) | 0.2 ± 0.02 nM | 0.3 ± 0.03 nM | 0.1 ± 0.1 nM | 0.9 ± 0.04 nM | 36.1 ± 2.2 nM | –
CSCC[C@H](NC(=O)CCCCCNC(=S)Nc1ccc2c(c1)C(=O)OC21c2ccc(O)cc2Oc2cc(O)ccc21)C(=O)N[C@@H](Cc1ccccc1)C(=O)N[C@@H](C)C(=O)N[C@@H](CO)C(=O)N[C@@H](CC(=O)O)C(=O)N[C@@H](CC(=O)O)C(=O)N[C@@H](CCC(=O)O)C(=O)N[C@@H](CC(N)=O)C(=O)N[C@H](C(=O)NCC(=O)N[C@@H](CO)C(=O)N[C@@H](CCC(N)=O)C(=O)N[C@@H](Cc1c[nH]cn1)C(=O)N[C@@H](CO)C(=O)N[C@H](C(=O)N1CCC[C@H]1C(=O)N1CCC[C@H]1C(=O)N[C@@H](CCCCN)C(=O)N[C@@H](CCCCN)C(=O)N[C@@H](CCCCN)C(=O)N[C@@H](CCCCN)C(=O)N[C@@H](CCCCN)C(=O)N[C@H](C(=O)O)C(C)C)[C@@H](C)O)[C@@H](C)O [JCPyV] ({FITC-Ahx}-MFASDDENTGSQHSTPPKKKKKV-OH; C-terminus assumed) | 76.9 ± 2 nM | 119 ± 2.8 nM | 103 ± 1.1 nM | 271 ± 4.1 nM | 89.6 ± 3 nM | –
